From ChEMBL document CHEMBL3870366, “Rational design, synthesis, and structure-activity relationships of 5-amino-1H-pyrazole-4-carboxylic acid derivatives as protein tyrosine phosphatase 1B inhibitors” (Bioorg Med Chem, 2017)
pKi: −log10 of the molar value.

Key:
[1] = molecular target: T1, Tyrosine-protein phosphatase non-receptor type 1 (Homo sapiens) (UniProt P18031); experiment: Inhibition of recombinant human PTP1B expressed in Escherichia coli expression system using pNPP as substrate at 10 uM preincubated for 30 mins followed by substrate addition by […]
T1 sequence (whole entry): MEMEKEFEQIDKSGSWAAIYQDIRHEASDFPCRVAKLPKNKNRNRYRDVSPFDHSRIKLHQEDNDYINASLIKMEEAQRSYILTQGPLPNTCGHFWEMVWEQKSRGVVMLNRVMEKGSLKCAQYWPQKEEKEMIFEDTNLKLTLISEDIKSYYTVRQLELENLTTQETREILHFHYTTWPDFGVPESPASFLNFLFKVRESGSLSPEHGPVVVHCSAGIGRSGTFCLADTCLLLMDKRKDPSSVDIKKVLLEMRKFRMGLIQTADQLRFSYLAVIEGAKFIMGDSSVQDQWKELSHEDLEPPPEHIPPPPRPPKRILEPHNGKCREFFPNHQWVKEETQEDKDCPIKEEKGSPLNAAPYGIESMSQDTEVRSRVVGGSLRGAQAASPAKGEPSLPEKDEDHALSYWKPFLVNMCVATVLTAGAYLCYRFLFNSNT

[2] = molecular target: T2, Tyrosine-protein phosphatase non-receptor type 1 (Homo sapiens, UniProt P18031); experiment: Inhibition of recombinant human PTP1B expressed in Escherichia coli expression system using pNPP as substrate preincubated for 30 mins followed by substrate addition by […]
T2 sequence (P18031 whole entry): T1 sequence (whole entry)

[3] = Intrinsic clearance in rat liver microsomes at 1 uM preincubated for 5 mins followed by NADPH addition measured up to 30 mins by LC-MS/MS analysis; assay type: ADME; conditions: 0.5 h
[4] = Intrinsic permeability of compound at 50 uM at pH 7.4 after 16 hrs by PAMPA assay; assay type: ADME
[5] = Intrinsic clearance in mouse liver microsomes at 1 uM preincubated for 5 mins followed by NADPH addition measured up to 30 mins by LC-MS/MS analysis; assay type: ADME; conditions: 0.5 h
[6] = molecular target: T1, Tyrosine-protein phosphatase non-receptor type 1 (Homo sapiens); experiment: Inhibition of recombinant human PTP1B expressed in Escherichia coli expression system using pNPP as substrate at 100 uM preincubated for 30 mins followed by substrate addition by […]

inhibition [1] [%] | pKi [2] | intrinsic clearance (CLint) [3] [mL/min/g] | Papp at 16 h, 50 µM [4] [×10⁻⁶ cm/s] | CLH [5] [mL/min/g] | inhibition [6] [%] | Compound
43.8 | 5.35 | 3 | 10.6 | 2.1 | 97.4 | Nc1c(C(=O)O)cnn1-c1ccc(CN(Cc2ccc(F)cc2)Cc2ccc(Cl)cc2)cc1
22.5 | 4.96 | 2 | 49.8 | 1.2 | 97.2 | Nc1c(C(=O)O)cnn1-c1ccc(CN(Cc2ccc(Cl)cc2)Cc2ccc(F)c(F)c2)cc1
12.1 | – | – | – | – | 36.8 | Nc1c(C(=O)O)cnn1-c1ccc(CC(C(=O)c2ccc(F)cc2)c2ccccc2)cc1 (stereo not given)
0.8 | – | – | – | – | 34.4 | Nc1c(C(=O)O)cnn1-c1ccc(CC(C(=O)c2ccc(F)cc2)c2ccc(F)cc2)cc1 (stereo not given)
18.8 | – | – | – | – | 89.5 | Nc1c(C(=O)O)cnn1-c1ccc(CC(C(=O)c2ccc(Cl)cc2)c2ccc(F)cc2)cc1 (stereo not given)
8.9 | – | – | – | – | 64 | Nc1c(C(=O)O)cnn1-c1ccc(CN(Cc2ccccc2)Cc2ccccc2)cc1
35.1 | 5.39 | 4 | – | 7.4 | 94 | COc1ccc(CN(Cc2ccc(F)cc2)Cc2ccc(-n3ncc(C(=O)O)c3N)cc2)cc1OC
30.8 | 5.34 | 3 | 9.1 | 0 | 97.3 | Nc1c(C(=O)O)cnn1-c1ccc(CC(c2ccc(F)cc2)c2nc(-c3ccc(Cl)cc3)no2)cc1 (stereo not given)
9.6 | – | – | – | – | 32.6 | Nc1c(C(=O)O)cnn1-c1ccc(CC(C(=O)c2ccccc2)c2ccccc2)cc1 (stereo not given)
25.8 | 5.09 | 3 | 0.4 | 1.5 | 95.5 | COc1ccc(-c2noc(C(Cc3ccc(-n4ncc(C(=O)O)c4N)cc3)c3ccc(F)cc3)n2)cc1 (stereo not given)
9.9 | 5.15 | 2.5 | 12.5 | 5.6 | 76.9 | COc1ccc(CN(Cc2ccc(OC)cc2)Cc2ccc(-n3ncc(C(=O)O)c3N)cc2)cc1
33.7 | 5.36 | 2 | – | 1.5 | 98.3 | COc1ccc(C(Cc2ccc(-n3ncc(C(=O)O)c3N)cc2)c2nc(-c3ccc(Cl)cc3)no2)cc1 (stereo not given)
16.2 | – | – | 1.5 | – | 91.5 | Nc1c(C(=O)O)cnn1-c1ccc(CC(C(=O)c2ccc(Cl)cc2)c2ccc(F)c(F)c2)cc1 (stereo not given)
5 | – | – | – | – | 49.7 | COc1ccc(CN(Cc2ccc(C)cc2)Cc2ccc(-n3ncc(C(=O)O)c3N)cc2)cc1
22 | 5.07 | 3 | – | 1.3 | 93.3 | COc1ccc(C(Cc2ccc(-n3ncc(C(=O)O)c3N)cc2)c2nc(-c3cccc(F)c3)no2)cc1 (stereo not given)
12.2 | – | – | – | – | 64 | Nc1c(C(=O)O)cnn1-c1ccc(CC(c2ccccc2)c2nc(-c3ccccc3)no2)cc1 (stereo not given)
19 | – | – | – | – | 43.9 | Nc1c(C(=O)O)cnn1-c1ccc(CC(C(=O)c2ccccc2)c2ccc(F)cc2)cc1 (stereo not given)
13.5 | – | – | – | – | 58.5 | COc1ccc(C(=O)C(Cc2ccc(-n3ncc(C(=O)O)c3N)cc2)c2ccc(F)cc2)cc1 (stereo not given)
21.6 | – | – | – | – | 82.2 | Nc1c(C(=O)O)cnn1-c1ccc(CC(C(=O)c2ccc(F)cc2)c2ccc(F)c(F)c2)cc1 (stereo not given)
19.5 | 4.89 | 3 | 27.9 | 2.7 | 95.2 | Nc1c(C(=O)O)cnn1-c1ccc(CN(Cc2ccc(F)cc2)Cc2ccc(F)c(F)c2)cc1
19 | – | – | – | – | 94.9 | Nc1c(C(=O)O)cnn1-c1ccc(CC(c2ccc(F)cc2)c2nc(-c3cccc(F)c3)no2)cc1 (stereo not given)
40.8 | – | – | – | – | 98.4 | Nc1c(C(=O)O)cnn1-c1ccc(CN(Cc2ccc(F)cc2)Cc2ccc(F)cc2)cc1
– | – | – | 16.6 | – | – | CC(C)NCC(O)COc1cccc2ccccc12 (stereo not given) [PROPRANOLOL]
21.6 | – | – | – | – | 82.2 | COc1ccc(CN(Cc2ccc(F)cc2)Cc2ccc(-n3ncc(C(=O)O)c3N)cc2)cc1
4.8 | – | – | – | – | 39.7 | COc1ccc(C(=O)C(Cc2ccc(-n3ncc(C(=O)O)c3N)cc2)c2ccc(OC)cc2)cc1 (stereo not given)
10.5 | – | – | – | – | 48.5 | Nc1c(C(=O)O)cnn1-c1ccc(CC(C(=O)c2ccccc2)c2ccc(F)c(F)c2)cc1 (stereo not given)
